Test results from patent publication US20140088027A1, “PHARMACEUTICAL COMPOSITION COMPRISING AN SGLT2 INHIBITOR AND A PPAR- GAMMA AGONIST AND USES THEREOF” (BOEHRINGER INGELHEIM INTERNATIONAL GMBH, priority 2010, published 2014).

Key:
[1] = Plasma insulin in cafeteria-diet obese female Wistar rats; assay type: in vivo, rat; conditions: fed, 10 mg/kg po once daily each, after 28/29 days
Procedure: (§1) An animal model of obesity was used to study the effect of Cpd. A, Pioglitazone or the combination of Cpd. A with Pioglitazone on body weight and total body fat content. For this, female Wistar rats were made obese by exposure to a simplified cafeteria diet containing high fat chow, chocolate and ground peanuts for approximately 19 weeks. Following the induction of obesity, rats were given vehicle (0.5% aqueous hydroxyethylcellulose) for 7 days and were then dosed orally once-daily with either vehicle, 10 mg/kg Cpd. A, 10 mg/kg Pioglitazone, or the combination of Cpd. A and Pioglitazone for 29 days. For the duration of the study rats were maintained on cafeteria diet.
After 28 days of treatment, blood samples were collected from the tail vein (from fed animals) for analysis of insulin. Plasma insulin values were determined by using a Millipore Luminex RENDO 85K kit.
In FIG. 2, results are mean plasma insulin levels±SEM after 29 days of once-daily oral treatment with the glucopyranosyl-substituted benzene derivative (Cpd. A), Pioglitazone or the combination of both Cpd. A and Pioglitazone at the indicated doses. Plasma insulin values were analyzed by unpaired t-test. P values versus vehicle control are indicated by symbols above the bars (*, p<0.05; **, p<0.01; ***, p<0.001). […] Combination of Cpd.

[2] = Body composition (FoodScan NIR) in cafeteria-diet obese female Wistar rats; assay type: in vivo, rat; conditions: 10 mg/kg po once daily, carcass analysis at Day 31
Procedure: as §1
At the end of the study on Day 31 (24 hours after the last treatment on Day 30) all rats were terminated, the body exsanguinated and the following tissues removed: the caudate liver lobe, the pancreas, the kidneys. Body composition (body fat, protein and water) was determined using the FoodScan NIR (near infra-red) meat analyser (Foss UK). This machine has AOAC (Association of Official Analytical Chemists) approval as reference method for the analysis of moisture, fat and protein in meat. The carcasses were milled under liquid nitrogen and a portion of the milled carcass was analysed in the FoodScan Analyser.
Results are the percentage reduction in each parameter when compared to control and presented along with the corresponding percentage reduction in carcass weight compared to the vehicle-treated control group. Body composition (body fat, protein and water) was determined using the FoodScan NIR (near infra-red) meat analyser (Foss UK).

[3] = test system: Zucker diabetic fatty rats (ZDF/Crl-Lepr^fa); test: Blood glucose time course in male Zucker diabetic fatty rats; assay type: in vivo, rat; conditions: freely fed, 2 h after dosing, two weeks once daily po, Cpd. A 1 mg/kg, pioglitazone 10 mg/kg
Source text: The SGLT2 inhibitor is the glucopyranosyl-substituted benzene derivative described as compound (I.9) hereinabove and referred to as “Cpd. A” in the following. The PPARγ agonist is pioglitazone. All experimental protocols concerning the use of laboratory animals were reviewed by a federal Ethics Committee and approved by governmental authorities. The time course of blood glucose was followed over a treatment period of 2 weeks in male Zucker diabetic fatty rats (ZDF/Crl-Lepr^fa) with an age of 10 weeks at the start of the study. A pre-dose blood sample was obtained by tail bleed (day 0) and blood glucose was measured with a glucometer. From day 1 to day 15, the animals (n=5/group) received once daily oral administrations of either vehicle alone (0.5% aqueous hydroxyethylcellulose) or this vehicle containing either Cpd. A or pioglitazone or the combination of the Cpd. A with pioglitazone. Blood glucose was measured in tail blood 2 h after dosing in freely fed animals. The data are presented as mean±S.E.M. Statistical comparison was conducted by repeated measures two-way ANOVA followed by Bonferroni post tests for group-wise comparisons. A p value <0.05 was considered to show a statistically significant difference.
Cpd. A is Cpd. A described as compound (I.9) hereinabove at a dose of 1 mg/kg. Pioglitazone was dosed at 10 mg/kg. Combination Cpd. […]

[4] = Body weight in cafeteria-diet obese female Wistar rats; assay type: in vivo, rat; conditions: obese female Wistar rats on cafeteria diet, 28 day treatment
Procedure: as §1
In FIG. 1, results are mean body weights (adjusted for differences between the body weights of the different treatment groups at baseline (Day 1))±SEM (calculated from the residuals of the statistical model), n=10) after 28 day once-daily oral treatment with the glucopyranosyl-substituted benzene derivative (Cpd. A), Pioglitazone or the combination of both Cpd. A and Pioglitazone at the indicated doses.
Body weight data were analyzed by unpaired t-test. […] Combination of Cpd.

[5] = metformin on its own, in the diabetic; cited from earlier work

## OC[C@H]1O[C@@H](c2ccc(Cl)c(Cc3ccc(O[C@H]4CCOC4)cc3)c2)[C@H](O)[C@@H](O)[C@@H]1O [Cpd. A]
[1]
  plasma insulin levels versus vehicle control: reduced the plasma insulin levels significantly
[2]
  Carcass weight (%), percentage reduction compared to vehicle-treated control: −3.5%
  Fat (%), percentage reduction compared to control: −4.5%
  Protein (%), percentage reduction compared to control: −1.5%
  Water (%), percentage reduction compared to control: −0.3%
[3]
  reduction of blood glucose: 37%
[4]; 10 mg/kg po once daily
  reduction of body weight compared to vehicle-treated control: 3.1%

## CCc1ccc(CCOc2ccc(CC3SC(=O)NC3=O)cc2)nc1 (centres unmarked) [Pioglitazone, pioglitazone]
[2]
  Carcass weight (%), percentage reduction compared to vehicle-treated control: 6.2%
  Fat (%), percentage reduction compared to control: 15.4%
  Protein (%), percentage reduction compared to control: 1.1%
  Water (%), percentage reduction compared to control: 3.6%
[3]
  reduction of blood glucose: 48%
[4]; 10 mg/kg po once daily each
  increase of body weight compared to vehicle-treated control animals: 6.8%

## CN(C)C(=N)N=C(N)N [metformin]
[5]
  average improvement in the HbA1c value: 1.0-1.5%
